Data as given in PubChem BioAssay AID1053132 (The Scripps Research Institute Molecular Screening Center, 2014).
Activity calls are given as the source filed them. How the calls were made is not given here.

Each molecule was assayed against methionyl-tRNA synthetase (Trypanosoma brucei brucei) (assay: inhibition of trypanosomal methionyl-tRNA synthetase – biochemical, luminescence, dose response, round 3, late-stage follow-up (AID 1053132)). Settings: recombinant T. brucei MetRS, luminescence (ATP consumption).

IC50, active:
CCN(CC)C(=O)C(=O)c1cn(CC(=O)Nc2cc(Oc3ccccc3F)cc(C(F)(F)F)c2)c2ccccc12 133 nM
CCN(CC)C(=O)C(=O)c1cn(CC(=O)Nc2cc(Oc3ccccc3)cc(C(F)(F)F)c2)c2ccccc12 58.1 nM
Nc1c(Cl)ncnc1Nc1ccc(C(=O)O)cc1 2540 nM
CCN(CC)C(=O)C(=O)c1cn(CC(=O)Nc2cc(Oc3ccccc3OC)cc(C(F)(F)F)c2)c2ccccc12 161 nM
CCN(CC)C(=O)C(=O)c1cn(CC(=O)Nc2cc(Oc3ccc(F)cc3)cc(C(F)(F)F)c2)c2ccccc12 188 nM
CCN(CC)C(=O)C(=O)c1cn(CC(=O)Nc2cccc(C(F)(F)F)c2)c2ccccc12 128 nM
CCN(CC)C(=O)C(=O)c1cn(CC(=O)Nc2cc(Oc3ccc(OC)cc3)cc(C(F)(F)F)c2)c2ccccc12 168 nM

IC50, inactive:
O=C(Cn1cc(C(=O)C(=O)NCc2ccccc2)c2ccccc21)Nc1cc(Oc2ccccc2)cc(C(F)(F)F)c1
CCN(CC)C(=O)Cc1cn(CC(=O)Nc2cccc(C(F)(F)F)c2)c2ccccc12 > 119000 nM
O=C(Cc1ccc(Nc2nc3ccc(Br)cc3[nH]2)cc1)NCCc1cccs1
CCN(CC)C(=O)C(=O)c1cn(CCNc2cc(Oc3ccccc3)cc(C(F)(F)F)c2)c2ccccc12
CCN(CC)C(=O)C(=O)c1cn(CCNc2cccc(C(F)(F)F)c2)c2ccccc12 > 119000 nM
